Where two headings read alike, the source gives them in different places.
Key:
Porphyromonas gingivalis = details: cited from earlier work
[1] = background, cited from earlier work
Fusobacterium nucleatum = details: cited from earlier work
Candida krusei = details: cited from earlier work
[2] = test system: Staphylococcus aureus (MRSA, ATCC 6538); experiment: Real-time microcalorimetric measurement of metabolic activity (Calscreener); format: cell-based
Protocol: Staphylococcus aureus (MRSA, ATCC 6538) was grown overnight in TSB (tryptic soy broth) medium, before being diluted 1×10^6 fold in fresh TSB. Subsequently […] aliquots of diluted bacteria suspensions were respectively supplemented with 1 and 2 mg/L of chlorhexidine (digluconate solution, 20% in H2O, Merck). […] The aqueous solution of chlorhexidine and the ethanol-based solution of triafluocyl were kept refrigerated. Chlorhexidine, triafluocyl or both, and ethanol as a vehicle were added to the bacterial suspensions to obtain the given concentrations followed by a brief vortexing. Bacterial aliquots were then distributed in the dedicated non-activated inserts of a 48-well plate and grown for 24 h or more under static conditions at 37 C using Calscreener technology to measure bacterial growth and metabolic activity in Real-Time as described in https://cordis.europa.eu/project/id/784514.
In FIG. 3, one sees the real-time microcalorimetric measurements of bacterial metabolic activity expressed as the heat flow, providing S. aureus as an example of Gram-positive bacteria strain. The line A stands for control bacteria with a vehicle at 0.66% ethanol in TSB, whereas the line B represents bacteria treated respectively with 1 mg/L of triafluocyl; C—1 mg/L of chlorhexidine; D—2 mg/L of chlorhexidine; and E—1 mg/L of chlorhexidine with 1 mg/L of triafluocyl.
Staphylococcus aureus (MRSA, ATCC 6538) was grown overnight in TSB (tryptic soy broth) medium, before being diluted 1×10^6 fold in fresh TSB. Subsequently […] aliquots of diluted bacteria suspensions were respectively supplemented with 0.25, 0.5 and 1 μg/mL of chlorhexidine (digluconate solution, 20% in H2O, Merck) or alexidine dihydrochloride (stock solution of 3 mg/mL in ethanol, Merck).
The aqueous solution of chlorhexidine and the ethanol-based solution of alexidine were kept refrigerated. Chlorhexidine, alexidine, and ethanol as a vehicle were added to the bacterial suspensions to obtain the given concentrations followed by a brief vortexing. Bacterial aliquots were then distributed in the dedicated non-activated inserts of a 48-well plate and grown for 24 h or more under static conditions at 37 C using Calscreener technology to measure bacterial growth and metabolic activity in Real-Time as described in https://cordis.europa.eu/project/id/784514.
In FIG. 4 the real-time microcalorimetric measurements of bacterial metabolic activity is expressed as the heat flow, providing S. aureus as an example. The line A stands for control bacteria with a vehicle (ethanol), whereas the line B represents bacteria treated respectively with 0.25 mg/mL of chlorhexidine; C—0.5 mg/mL of chlorhexidine; D—1 mg/mL of chlorhexidine; E—0.25 mg/mL of alexidine; F −0.5 mg/mL of alexidine; and G—1 mg/mL of alexidine.
Staphylococcus aureus (MRSA, ATCC 6538) was grown overnight in TSB (tryptic soy broth) medium, before being diluted 1×10^6 fold in fresh TSB. Subsequently […] aliquots of diluted bacteria suspensions were respectively supplemented with […] of alexidine dihydrochloride (stock solution of 3 mg/mL in ethanol, Merck). […] The ethanol-based solutions of alexidine and fluometacyl were stored at −20° C. […]
In FIG. 5 real-time microcalorimetric measurements of bacterial metabolic activity is expressed as the heat flow, providing S. aureus as an example. […]

Candida tropicalis = details: cited from earlier work
[3] = test system: Staphylococcus aureus MRSA; details: cited from earlier work
Streptococcus mutans = details: cited from earlier work
[4] = test system: Lactobacillus acidophilus; details: cited from earlier work
[5] = test system: Pseudomonas aeruginosa (PA); experiment: MIC in monotherapy and in combination (ISO standard 20776-1); format: cell-based
From the text: (§1) Summary Of MIC values for Fluometacyl (FLC)+Chlorhexidine (CHX) Tested Against MRSA, Enterococcusfaecalis (VRE), Pseudomonas aeruginosa (PA) and Candida albicans (CA).
(§2) By Minimum Inhibitory Concentration (MIC) one means the lowest concentration of antimicrobial that prevents visible growth of a microorganism (determined according to ISO standard 20776-1).
(§3) This finds an implication in combining many known antimicrobials together rather than discovering new chemical entities.

Candida albicans (CA) = experiment: as above; format: cell-based
From the text: as §1, §2, §3

[6] = test system: Pseudomonas aeruginosa (ATCC 15442); experiment: Real-time microcalorimetric measurement of metabolic activity (Calscreener); format: cell-based
Protocol: Pseudomonas aeruginosa (ATCC 15442) was grown overnight in TSB (tryptic soy broth) medium, before being diluted 1×10^7 fold in fresh TSB. Subsequently […] aliquots of diluted bacteria suspensions were respectively supplemented with 1, 2, 4, 6, 12 and 24 mg/L of chlorhexidine (digluconate solution, 20% in H2O, Merck). The aqueous solution of chlorhexidine was kept refrigerated according to the manufacturer's technical sheet. Chlorhexidine or mQH2O as a vehicle were added to the bacterial suspensions to obtain the given concentrations followed by a brief vortexing. Bacterial aliquots were then distributed in the dedicated non-activated inserts of a 48-well plate and grown for 24 h or more under static conditions at 37 C using Calscreener technology to measure bacterial growth and metabolic activity in Real-Time as described in https://cordis.europa.eu/project/id/784514.
For the study of the combination of chlorhexidine and triafluocyl aforementioned diluted bacterial suspensions were supplemented with either chlorhexidine alone (1, 2, 4, 6, 12 mg/L) or mixed with triafluocyl (20 mg/L, Polpharma). Triafluocyl was stored in absolute ethanol in the refrigerator at a concentration of 3 mg/mL. […]
FIG. 1, illustrates a real-time microcalorimetric measurements of bacterial metabolic activity expressed as the heat flow, providing P. aeruginosa as an example. […]

Molecule: [H]/N=C(\N/C(=N/[H])NCCCCCCNC(=N)NC(=N)Nc1ccc(Cl)cc1)Nc1ccc(Cl)cc1 [Chlorhexidine, chlorhexidine]
- MIC of chlorhexdine (Porphyromonas gingivalis): 0.9 µg/mL
- solubility in water ([1]; chlorhexidine base): insoluble in water
- MIC of chlorhexdine (Fusobacterium nucleatum): 1.8 µg/mL
- MIC of chlorhexdine (Candida krusei): 150 µg/mL
- effect on growth (heat flow) ([2]; chlorhexidine 1 mg/L, FIG. 3): strong shift in a metabolic activity
- effect on growth (heat flow) ([2]; chlorhexidine 1 mg/mL, FIG. 4): strong shift in a metabolic activity
- MIC of chlorhexdine (Candida tropicalis): 75 µg/mL
- MIC of chlorhexdine [3]: 2 to 8 µg/mL
- MIC of chlorhexdine ([3]; listed as chlorexhidrine): 1 to 8 µg/mL
- MIC of chlorhexdine ([3]; listed as chlorhexidrine): 1 to 8 µg/mL
- MIC of chlorhexdine (Streptococcus mutans): 0.9 to 4 µg/mL
- MIC of chlorhexdine [4]: 0.5 to 2 µg/mL

Molecule: CCCSc1nc(N[C@@H]2C[C@H]2c2ccc(F)c(F)c2)c2nnn([C@@H]3C[C@H](O)[C@@H](O)[C@H]3O)c2n1 [Fluometacyl, (1S,2R,3S,4R)-4-[7-[[(1R,2S)-2-(3,4-Difluorophenyl)cyclopropyl]amino]-5-(propylthio)-3H-1,2,3-triazolo[4,5-d]pyrimidin-3-yl]-1,2,3-cyclopentanetriol]
- solubility in an aqueous environment or aqueous medium [1]: generally not soluble
- MIC Monotherapy (X) [5]: Not detected
- MIC Monotherapy (X) (Candida albicans (CA)): Not detected

Molecule: CCCSc1nc(N[C@@H]2C[C@H]2c2ccc(F)c(F)c2)c2nnn([C@@H]3C[C@H](OCCO)[C@@H](O)[C@H]3O)c2n1 [Triafluocyl, (1S,2S,3R,5S)-3-[7-[(1R,2S)-2-(3,4-difluorophenyl)cyclopropylamino]-5-(propylthio)-3H-[1,2,3]-triazolo[4,5-d]pyrimidin-3-yl]-5-(2-hydroxyethoxy)-1,2-cyclopentanediol]
- solubility in an aqueous environment or aqueous medium [1]: generally not soluble
- effect on growth (heat flow) ([6]; triafluocyl 20 mg/L, FIG. 2): does not inhibit the growth
- effect on growth (heat flow) ([2]; triafluocyl 1 mg/L, FIG. 3): doesn't affect the growth

Molecule: alexidine
- effect on growth (heat flow) ([6]; alexidine 4 mg/mL, FIG. 6): strong growth inhibition
- effect on growth (heat flow) ([2]; alexidine 1 mg/mL, FIG. 4): full growth inhibition
- effect on growth (heat flow), compared with chlorhexidine ([2]; alexidine 0.25 and 0.5 mg/mL, FIG. 4): noticeably stronger effect
